The subject of experiment [1] is Staphylococcus aureus X1.1. The experiment is described as follows: MIC, standard agar-dilution assay, Staphylococcus aureus X1.1. In kind it is cell-based. The note with it: Staphylococcus aureus X1.1; agar dilution. A general note: In agar dilution, organisms are placed on agar that contains the substance at set levels.
In experiment [2] the test system is Staphylococcus aureus V41. The experiment is described as follows: MIC, standard agar-dilution assay, Staphylococcus aureus V41. The following applies: Staphylococcus aureus V41; penicillin-resistant strain; agar dilution. In kind it is cell-based.
Experiment [3] deals with Staphylococcus aureus X400. Briefly: MIC, standard agar-dilution assay, Staphylococcus aureus X400. The note with it: Staphylococcus aureus X400; methicillin-resistant strain; agar dilution. Format: cell-based.
For experiment [4], the system named is Staphylococcus aureus S13E. The experiment is described as follows: MIC, standard agar-dilution assay, Staphylococcus aureus S13E. The note with it: Staphylococcus aureus S13E; agar dilution. In kind it is cell-based.
Experiment [5] deals with Staphylococcus epidermidis EPI1. Briefly: MIC, standard agar-dilution assay, Staphylococcus epidermidis EPI1. In kind it is cell-based. The following applies: Staphylococcus epidermidis EPI1; agar dilution.
The subject of experiment [6] is Staphylococcus epidermidis EPI2. The experiment is described as follows: MIC, standard agar-dilution assay, Staphylococcus epidermidis EPI2. The following applies: Staphylococcus epidermidis EPI2; agar dilution. In kind it is cell-based.
Experiment [7] deals with Streptococcus pyogenes C203. Briefly: MIC, standard agar-dilution assay, Streptococcus pyogenes C203. Format: cell-based. The note with it: Streptococcus pyogenes C203; agar dilution.
Experiment [8] relates to Streptococcus pneumoniae Park I. The experiment is described as follows: microbe, parasite or virus in culture. The note with it: Streptococcus pneumoniae Park I; agar dilution. In kind it is cell-based.
The test system of experiment [9] is Streptococcus Group D X66. Briefly: MIC, standard agar-dilution assay, Streptococcus Group D X66. The following applies: Streptococcus Group D X66; agar dilution. Format: cell-based.
Another experiment relates to Streptococcus Group 9960. The experiment is described as follows: MIC, standard agar-dilution assay, Streptococcus Group 9960. Format: cell-based. The note with it: Streptococcus Group 9960; agar dilution.
Experiment [10] has as its system Haemophilus influenzae Holt. Briefly: MIC, standard agar-dilution assay, Haemophilus influenzae Holt. In kind it is cell-based. The following applies: Haemophilus influenzae Holt; ampicillin-sensitive strain; agar dilution.
The subject of experiment [11] is Haemophilus influenzae R252. The experiment is described as follows: MIC, standard agar-dilution assay, Haemophilus influenzae R252. Format: cell-based. The following applies: Haemophilus influenzae R252; ampicillin-resistant strain; agar dilution.
For the next experiment, the system named is Staphylococcus aureus. Briefly: MIC, broth-dilution microtiter test, Staphylococcus aureus. In kind it is cell-based. The following applies: broth-dilution microtiter. The text has this: (§1) The MIC's in Table X were obtained using conventional broth-dilution microtiter tests.
Another experiment deals with Streptococcus bovis 80. Briefly: MIC, broth-dilution microtiter test, Streptococcus bovis 80. Format: cell-based. The following applies: Streptococcus bovis 80; broth-dilution microtiter.
Source text: as §1

The test system of experiment [12] is Pasteurella multocida 17E. Briefly: MIC, broth-dilution microtiter test, Pasteurella multocida 17E. Format: cell-based. The following applies: Pasteurella multocida 17E; bovine isolate; broth-dilution microtiter.
Source text: as §1

In experiment [13] the test system is Pasteurella multocida 60A. The experiment is described as follows: MIC, broth-dilution microtiter test, Pasteurella multocida 60A. Format: cell-based. The following applies: Pasteurella multocida 60A; avian isolate; broth-dilution microtiter.
Source text: as §1

Experiment [14] has as its system Pasteurella hemolytica 22C. Briefly: MIC, broth-dilution microtiter test, Pasteurella hemolytica 22C. In kind it is cell-based. The note with it: Pasteurella hemolytica 22C; broth-dilution microtiter.
Source text: as §1

The subject of a further experiment is Mycoplasma gallisepticum. The experiment is described as follows: MIC, broth-dilution microtiter test, Mycoplasma gallisepticum. Format: cell-based. The following applies: Mycoplasma gallisepticum; broth-dilution microtiter.
Source text: as §1

For the next experiment, the system named is Mycoplasma synoviae. The experiment is described as follows: MIC, broth-dilution microtiter test, Mycoplasma synoviae. Format: cell-based. The note with it: Mycoplasma synoviae; broth-dilution microtiter.
Source text: as §1

Another experiment deals with Mycoplasma hyorhinis. The experiment is described as follows: MIC, broth-dilution microtiter test, Mycoplasma hyorhinis. In kind it is cell-based. The following applies: Mycoplasma hyorhinis; broth-dilution microtiter.
Source text: as §1

Another experiment deals with Mycoplasma hyopneumoniae. The experiment is described as follows: MIC, broth-dilution microtiter test, Mycoplasma hyopneumoniae. Format: cell-based. The note with it: Mycoplasma hyopneumoniae; broth-dilution microtiter.
Source text: as §1

Experiment [15] has as its system Streptococcus pyogenes C203. Briefly: In vivo protection of mice experimentally infected with S. pyogenes C203. The following applies: mice, doses given 1 and 4 hours post-infection. The method, then:
The C-20 modified derivatives of this invention have shown in vivo antimicrobial activity against experimentally-induced infections in laboratory animals. When two doses of test compound were administered to mice experimentally infected with S. pyogenes C203, the activity observed was measured as an ED50 value [effective dose in mg/kg to protect 50% of the test animals: see Warren Wick, et al., J. Bacteriol. 81, 233-235 (1961)].

Each structure is given as a SMILES string. Values after ≈ are worked out from the molar mass of the structure shown.

The values below come from patent US4443436A, “C-20-Modified macrolide derivatives of the macrolide antibiotics tylosin, desmycosin, macrocin, and lactenocin” (Eli Lilly and Company, priority 1982, dated 1984).

As to `CCC1OC(=O)CC(O)C(C)C(OC2OC(C)C(O)C(N(C)C)C2O)C(CCOc2ccc(-c3ccccc3)cc2)CC(C)C(=O)C=CC(C)=CC1COC1OC(C)C(O)C(OC)C1OC` (stereo not drawn) [Compound 41, 20-DH-20-O-(p-Phenylphenyl)desmycosin], the MIC in experiment [1] was determined as 0.5 mg/L (≈ 0.54 µM); in [2], 0.25 mg/L (≈ 0.27 µM); in experiment [3], 0.5 mg/L (≈ 0.54 µM); in [4], 0.25 mg/L (≈ 0.27 µM); in experiment [5], 0.5 mg/L (≈ 0.54 µM); in experiment [6] it was 0.25 mg/L (≈ 0.27 µM). Moreover, the MIC in experiment [7] amounted to 0.25 mg/L (≈ 0.27 µM); in [8], 0.25 mg/L (≈ 0.27 µM); in experiment [9] it was 0.5 mg/L (≈ 0.54 µM); against Streptococcus Group 9960, 0.5 mg/L (≈ 0.54 µM); in [10], 16 mg/L (≈ 17.3 µM); in experiment [11], 16 mg/L (≈ 17.3 µM). Further, the MIC against Staphylococcus aureus was 0.19 mg/L (≈ 0.205 µM); in the experiment on Streptococcus bovis 80, 0.39 mg/L (≈ 0.421 µM); in experiment [12] it was 12.5 mg/L (≈ 13.5 µM); in experiment [13], 12.5 mg/L (≈ 13.5 µM); in [14] it was 25 mg/L (≈ 27 µM); against Mycoplasma gallisepticum, less than 0.05 mg/L. For the same molecule, the MIC in the experiment with Mycoplasma synoviae was 0.39 mg/L (≈ 0.421 µM); in the experiment with Mycoplasma hyorhinis, 3.12 mg/L (≈ 3.37 µM); in the experiment on Mycoplasma hyopneumoniae it was 3.12 mg/L (≈ 3.37 µM). Moreover, the “ED50, Oral” value in [15] is recorded as 25 mg/kg × 2. In addition, the “ED50, Subcutaneous” value in [15] is on record as more than 10 mg/kg × 2.
For `CCC1OC(=O)CC(O)C(C)C(OC2OC(C)C(O)C(N(C)C)C2O)C(CCOc2ccc(Oc3ccccc3)cc2)CC(C)C(=O)C=CC(C)=CC1COC1OC(C)C(O)C(OC)C1OC` (stereo not drawn) [Compound 47, 20-DH-20-O-(p-Phenoxyphenyl)desmycosin], the MIC in experiment [1] is 0.5 mg/L (≈ 0.531 µM); in experiment [2] it was 0.5 mg/L (≈ 0.531 µM); in experiment [3] it was 0.5 mg/L (≈ 0.531 µM); in [4], 0.25 mg/L (≈ 0.265 µM); in [5], 0.5 mg/L (≈ 0.531 µM); in experiment [6], 0.25 mg/L (≈ 0.265 µM). The MIC in experiment [7] is 0.25 mg/L (≈ 0.265 µM); in experiment [8] it was 0.25 mg/L (≈ 0.265 µM); in experiment [9], 0.5 mg/L (≈ 0.531 µM); in the experiment on Streptococcus Group 9960, 1 mg/L (≈ 1.06 µM); in experiment [10], 16 mg/L (≈ 17 µM); in experiment [11], 16 mg/L (≈ 17 µM). Moreover, the MIC in the experiment with Staphylococcus aureus is 0.78 mg/L (≈ 0.828 µM); against Streptococcus bovis 80, 0.09 mg/L (≈ 0.0955 µM); in [12], 25 mg/L (≈ 26.5 µM); in experiment [13], 25 mg/L (≈ 26.5 µM); in [14] it was 25 mg/L (≈ 26.5 µM); against Mycoplasma gallisepticum it was less than 0.05 mg/L. The MIC against Mycoplasma synoviae is 0.09 mg/L (≈ 0.0955 µM); in the experiment on Mycoplasma hyorhinis, 6.25 mg/L (≈ 6.63 µM); against Mycoplasma hyopneumoniae it was 3.12 mg/L (≈ 3.31 µM). In addition, the “ED50, Oral” value in experiment [15] was 29 mg/kg × 2. For the same molecule, the “ED50, Subcutaneous” value in experiment [15] was more than 10 mg/kg × 2.
On to `CCC1OC(=O)CC(O)C(C)C(OC2OC(C)C(O)C(N(C)C)C2O)C(CCOc2cccc(Oc3ccccc3)c2)CC(C)C(=O)C=CC(C)=CC1COC1OC(C)C(O)C(OC)C1OC` (stereo not drawn) [Compound 48, 20-DH-20-O-(m-Phenoxyphenyl)desmycosin], for which the MIC was 0.5 mg/L (≈ 0.531 µM) in experiment [1]; 0.5 mg/L (≈ 0.531 µM) in experiment [2]; 0.5 mg/L (≈ 0.531 µM) in experiment [3]; 0.5 mg/L (≈ 0.531 µM) in experiment [4]; 0.5 mg/L (≈ 0.531 µM) in experiment [5]; 0.25 mg/L (≈ 0.265 µM) in experiment [6]. Further, the MIC in [7] was 0.25 mg/L (≈ 0.265 µM); in experiment [8] it was 0.25 mg/L (≈ 0.265 µM); in experiment [9] it was 0.5 mg/L (≈ 0.531 µM); in the experiment with Streptococcus Group 9960 it was 1 mg/L (≈ 1.06 µM); in experiment [10], 16 mg/L (≈ 17 µM); in [11] it was 16 mg/L (≈ 17 µM). The MIC is 0.78 mg/L (≈ 0.828 µM) against Staphylococcus aureus; 0.09 mg/L (≈ 0.0955 µM) against Streptococcus bovis 80; 25 mg/L (≈ 26.5 µM) in [12]; 25 mg/L (≈ 26.5 µM) in experiment [13]; 25 mg/L (≈ 26.5 µM) in experiment [14]; less than 0.05 mg/L against Mycoplasma gallisepticum. Moreover, the MIC in the experiment on Mycoplasma synoviae turned out to be 0.19 mg/L (≈ 0.202 µM); in the experiment on Mycoplasma hyorhinis it was 12.5 mg/L (≈ 13.3 µM); against Mycoplasma hyopneumoniae it was 1.56 mg/L (≈ 1.66 µM). The “ED50, Oral” value in experiment [15] is recorded as 35 mg/kg × 2. In addition, in [15], the “ED50, Subcutaneous” value is reported as more than 10 mg/kg × 2.
